Series [1] deals with patients with Dravet syndrome. The settings on record: long-term fenfluramine treatment; cited from earlier work.
Series [2] concerns patients with Dravet syndrome. Kind of series: Study 1 (ZX008-1501/1502): Phase 3, double-blind, placebo-controlled, liquid fenfluramine formulation added to current antiepileptic drugs. Format: in vivo, human. The settings on record: end of the T+M Period. The procedure: The first 119 subjects to be randomized in both identical studies combined were analyzed and reported as Study 1 (FIG. 1), covered by a Statistical Analysis Plan (SAP).
Primary and key secondary endpoints in the Study 1 SAP were pre-determined. All patients were treated twice per day over a period of 14 weeks using an oral syringe to administer the formulation. The treatment period included a two-week titration period and a 12-week maintenance period.
The initial results of Study 1 are outlined below. The randomized, double blind, placebo controlled, Phase 3 study enrolled 119 patients across sites in the United States, Canada, Europe and Australia. The median age of patients was 8 years, the mean age of patients was 9 years (range, 2-18 years) (FIG. 2).
Patients were titrated to their target dose over two weeks, and then remained at that fixed dose for 12 weeks. The mean baseline convulsive seizure frequency across the study groups was approximately 40 seizures per month. 110 (92%) patients completed the study (85% 0.8 mg/kg/day; 100% 0.2 mg/kg/day; 93% placebo). […]
The mean number of convulsive seizure free days, defined as a day for which diary data are available and no convulsive seizures have been reported, was determined for each treatment group during the Baseline and T+M Periods. […]

Structures are written as SMILES.

Turning to `CCNC(C)Cc1cccc(C(F)(F)F)c1` (racemic) [Fenfluramine, 3-trifluoromethyl-N-ethylamphetamine], in series [1], the “heart valve defects monitored by echocardiography” value is “No clinically relevant defects”; the “incidence of all types of seizures” value is listed as “effectively reduced the incidence of all types of seizures”; the “seizure-free condition, share of test subjects” value is 66.6%. Moreover, the “reduction from Baseline in non-convulsive seizures (all types), % [SD]” value in series [2] (0.2 mg/kg/day) is 9.7% (140.46). Also, the “reduction from Baseline in non-convulsive seizures (all types), % [SD]” value in series [2] (0.8 mg/kg/day) was 59.1% (40.14).

These data come from patent publication US20190091174A1, “METHOD OF REDUCING SEIZURE TYPE E[…] A DRAVET PATIENT” (ZOGENIX INTERNATIONAL LIMITED, priority 2017, published 2019).
